From the SangsterLogP compilation

Assay: method code SF-AS, from DOI: 10.1016/0223-5234(92)90053-4

Row | logP | Compound
1 | 2.53 | CC(O)CNCCCC(=O)Cc1ccccc1 (configuration not stated)
2 | 3.29 | CN(CCO)CCCC(=O)c1cccs1
3 | 2.58 | NCCNCCCC(=O)c1cccs1
4 | 2.41 | O=C(CCCNCCO)c1ccccc1
5 | 3.16 | Cc1cc(C)c(C(=O)CCCNCCO)c(C)c1
6 | 3.85 | CCc1ccccc1C(=O)CCCNCCO
7 | 3.03 | O=C(CCCNCCO)Cc1ccccc1
8 | 3.61 | Cc1ccccc1C(=O)CCCNCCO
9 | 2.73 | CC(O)CNCCCC(=O)c1cccs1 (configuration not stated)
10 | 2.74 | NCCNCCCC(=O)c1ccccc1
11 | 3.07 | CN(CCO)CCCC(=O)Cc1ccccc1
12 | 3.96 | O=C(CCCNCCO)C1CCCCC1
13 | 3.28 | CC(O)CNCCCC(=O)c1ccccc1 (configuration not stated)
14 | 3 | Cc1ccsc1C(=O)CCCNCCO
15 | 3.79 | CCN(CC)CCCC(=O)c1ccccc1
16 | 2.4 | CN(CCO)CCCC(=O)c1ccccc1
17 | 2.89 | O=C(CCCNCCO)c1cccs1
